# US9919998B2, “Antibacterial agents: Nα-aroyl-N-aryl-phenylalaninamides” (priority 2014, dated 2018)
# Assays:
# [1] = system: Vero E6 ATCC CRL1586 cells; experiment: Mammalian-cell cytotoxicity, minimal cytotoxic concentration (CellTiter96); assay type: cell-based
# Procedure: Minimal cytotoxic concentrations (MCCs) against mammalian cells in culture were determined using Vero E6 ATCC CRL1586 cells and the CellTiter96 assay kit (Promega, Inc.). […]
# [2] = system: rifampin-resistant mutants, derivatives of M. smegmatis ATCC19420; experiment: MICs in rifampin-resistant mutants (cross-resistance levels); assay type: cell-based, Mycobacterium smegmatis
# Text: (§1) MICs in Mycobacterium smegmatis ATCC 19420 and Mycobacterium smegmatis ATCC 19420 derivatives were quantified using broth microdilution assays as described [Clinical and Laboratory Standards Institute (CLSI/NCCLS) (2009) Methods for Dilution Antimicrobial Susceptibility Tests for Bacteria That Grow Aerobically; Approved Standard, Eighth Edition. CLIS Document M07-A8 (CLIS, Wayne Pa.)].
# [3] = system: Mycobacterium avium ATCC 25291; experiment: Microplate Alamar Blue assay (MABA) MIC, M. avium; assay type: cell-based; conditions: ATCC25291, M. avium ATCC 25291
# Text: (§2) Minimal inhibitory concentrations (MICs) in Mycobacterium tuberculosis H37Rv and Mycobacterium avium ATCC 25291 were quantified using microplate Alamar Blue assays as described (MABA; [Collins, L. & Franzblau, S. (1997) Microplate Alamar Blue assay versus BACTEC 460 system for high-throughput screening of compounds against Mycobacterium tuberculosis and Mycobacterium avium. Antimicrob. Agents Chemother. 41, 1004-1009]).
# [4] = system: Mycobacterium tuberculosis H37Rv; experiment: Microplate Alamar Blue assay (MABA) MIC, M. tuberculosis; assay type: cell-based; conditions: read-out: MIC Mycobacterium tuberculosis H37Rv
# Text: as §2
# [5] = system: Mycobacterium smegmatis ATCC 19420; experiment: Broth microdilution MIC, M. smegmatis; assay type: cell-based; conditions: Mycolicibacterium smegmatis, ATCC19420, M. smegmatis ATCC 19420; read-out: MIC Mycobacterium smegmatis ATCC 19420
# Text: as §1
Structure (SMILES),MCC mammalian cells Vero E6 ATCC CRL1586 [1],cross-resistance of rifampin-resistant mutants to the compound [2],MIC [3],MIC [4],MIC [5]
COc1ccccc1NC(=O)C(Cc1ccccc1)NC(=O)c1ccccc1 (centres unmarked) [I-17],>37 µg/mL,No rifampin-resistant mutant was found to exhibit cross-resistance,6.25 µg/mL,3.13 µg/mL,0.39 µg/mL
COc1ccccc1C(=O)NC(Cc1ccccc1)C(=O)Nc1ccccc1C (centres unmarked) [I-25],57 µg/mL,No rifampin-resistant mutant was found to exhibit cross-resistance,,> 50 µg/mL,6.25 µg/mL
Cc1ccc(Br)cc1NC(=O)C(Cc1ccccc1)NC(=O)c1ccccc1 (centres unmarked) [I-97],,No rifampin-resistant mutant was found to exhibit cross-resistance,> 50 µg/mL,25 µg/mL,0.78 µg/mL
Cc1ccccc1NC(=O)C(Cc1ccccc1)NC(=O)c1ccccc1Br (centres unmarked) [I-102],29 µg/mL,No rifampin-resistant mutant was found to exhibit cross-resistance,,> 50 µg/mL,3.12 µg/mL
"Cc1ccccc1NC(=O)C(Cc1ccc(OC(=O)c2ccccc2)cc1)NC(=O)c1ccccc1 (centres unmarked) [I-236, 4-(2-benzamido-3-oxo-3-(o-tolylamino)propyl)phenyl benzoate]",>48 µg/mL,No rifampin-resistant mutant was found to exhibit cross-resistance,,25 µg/mL,0.39 µg/mL
Cc1ccccc1NC(=O)C(Cc1ccccc1)NC(=O)c1cccnc1 (centres unmarked) [II-13],>36 µg/mL,No rifampin-resistant mutant was found to exhibit cross-resistance,,> 50 µg/mL,6.25 µg/mL
"O=C(NC(Cc1ccc(O)cc1)C(=O)Nc1ccccc1N1CCNCC1)c1cccs1 (centres unmarked) [IX-219, N-(3-(4-hydroxyphenyl)-1-oxo-1-((2-(piperazin-1-yl)phenyl)amino)-propan-2-yl)thiophene-2-carboxamide]",69 µg/mL,,3.12 µg/mL,1.56 µg/mL,0.78 µg/mL
"O=C(NC(Cc1ccc(O)cc1)C(=O)Nc1cc(F)ccc1N1CCNCC1)c1cccs1 (centres unmarked) [IX-222, N-(1-((5-fluoro-2-(piperazin-1-yl)phenyl)amino)-3-(4-hydroxyphen-yl)-1-oxopropan-2-yl)thiophene-2-carboxamide]",38 µg/mL,,1.56 µg/mL,1.56 µg/mL,0.78 µg/mL
"O=C(NC(Cc1ccccc1)C(=O)Nc1cccc2[nH]nnc12)c1ccccc1 (centres unmarked) [IX-223, N-(1-((1H-benzo[d][1,2,3]triazol-4-yl)amino)-1-oxo-3-phenylpropan-2-yl)benzamide]",64 µg/mL,,50 µg/mL,25 µg/mL,0.78 µg/mL
"Cn1nnc2cccc(NC(=O)C(Cc3ccccc3)NC(=O)c3ccccc3)c21 (centres unmarked) [IX-224, N-(1-((1-methyl-1H-benzo[d][1,2,3]triazol-7-yl)amino)-1-oxo-3-phenylpropan-2-yl)benzamide]",>100 µg/mL,,25 µg/mL,6.25 µg/mL,0.39 µg/mL
"Cn1ncc2c(NC(=O)C(Cc3ccccc3)NC(=O)c3ccccc3)cccc21 (centres unmarked) [IX-225, N-(1-((1-methyl-1H-indazol-4-yl)amino)-1-oxo-3-phenylpropan-2-yl)benzamide]",45 µg/mL,,1.56 µg/mL,1.56 µg/mL,0.195 µg/mL
"O=C(NC(Cc1ccccc1)C(=O)Nc1cccc2nc[nH]c12)c1ccccc1 (centres unmarked) [IX-230, N-(1-((1H-benzo[d]imidazol-7-yl)amino)-1-oxo-3-phenylpropan-2-yl)benzamide]",84 µg/mL,,25 µg/mL,50 µg/mL,0.39 µg/mL
"Cn1ccc2cccc(NC(=O)C(Cc3ccccc3)NC(=O)c3ccccc3)c21 (centres unmarked) [IX-231, N-(1-((1-methyl-1H-indol-7-yl)amino)-1-oxo-3-phenylpropan-2-yl)benzamide]",>100 µg/mL,,> 50 µg/mL,25 µg/mL,1.56 µg/mL
"Cn1cnc2cccc(NC(=O)C(Cc3ccccc3)NC(=O)c3ccccc3)c21 (centres unmarked) [IX-232, N-(1-((1-methyl-1H-benzo[d]imidazol-7-yl)amino)-1-oxo-3-phenyl-propan-2-yl)benzamide]",96 µg/mL,,25 µg/mL,25 µg/mL,1.56 µg/mL
"O=C(NC(Cc1ccccc1)C(=O)Nc1cccc2ncsc12)c1ccccc1 (centres unmarked) [IX-234, N-(1-(benzo[d]thiazol-7-ylamino)-1-oxo-3-phenylpropan-2-yl)benz-amide]",80 µg/mL,,3.12 µg/mL,3.12 µg/mL,0.39 µg/mL
"O=C(NC(Cc1ccccc1)C(=O)Nc1cccc2[nH]ncc12)c1cccc2[nH]ccc12 (centres unmarked) [IX-241, N-(1-((1H-indazol-4-yl)amino)-1-oxo-3-phenylpropan-2-yl)-1H-indole-4-carboxamide]",36 µg/mL,,12.5 µg/mL,25 µg/mL,0.78 µg/mL
"O=C(NC(Cc1ccccc1)C(=O)Nc1ccccc1N1CCNCC1)c1cccc2[nH]ccc12 (centres unmarked) [IX-242, N-(1-oxo-3-phenyl-1-((2-(piperazin-1-yl)phenyl)amino)propan-2-yl)-1H-indole-4-carboxamide]",12 µg/mL,,0.78 µg/mL,3.12 µg/mL,0.04 µg/mL
O=C(NC(Cc1ccccc1)C(=O)Nc1cc(F)ccc1N1CCNCC1)c1cccc2[nH]ccc12 (centres unmarked) [IX-243],11 µg/mL,,0.78 µg/mL,6.25 µg/mL,0.19 µg/mL
"COc1ccc(F)cc1NC(=O)C(Cc1ccccc1)NC(=O)c1cccc2[nH]ccc12 (centres unmarked) [IX-244, N-(1-((5-fluoro-2-methoxyphenyl)amino)-1-oxo-3-phenylpropan-2-yl)-1H-indole-4-carboxamide]",58 µg/mL,,3.12 µg/mL,6.25 µg/mL,0.78 µg/mL
"O=C(NC(Cc1ccc(O)cc1)C(=O)Nc1cc(F)ccc1N1CCNCC1)c1ccccc1 (centres unmarked) [IX-246, N-(1-((5-fluoro-2-(piperazin-1-yl)phenyl)amino)-3-(4-hydroxy-phenyl)-1-oxopropan-2-yl)benzamide]",34 µg/mL,,0.78 µg/mL,3.12 µg/mL,0.195 µg/mL
"CC1CN(c2ccccc2NC(=O)C(Cc2ccccc2)NC(=O)c2ccccc2)CC(C)O1 (centres unmarked) [IX-265, N-(1-((2-(2,6-dimethylmorpholino)phenyl)amino)-1-oxo-3-phenyl-propan-2-yl)benzamide]",>100 µg/mL,,6.25 µg/mL,6.25 µg/mL,1.56 µg/mL
"CC1CN(c2ccccc2NC(=O)C(Cc2ccc(O)cc2)NC(=O)c2ccccc2)CC(C)O1 (centres unmarked) [IX-266, N-(1-((2-(2,6-dimethylmorpholino)phenyl)amino)-3-(4-hydroxy-phenyl)-1-oxopropan-2-yl)benzamide]",71 µg/mL,,6.25 µg/mL,6.25 µg/mL,1.56 µg/mL
"COc1ccc(Cl)cc1NC(=O)C(Cc1ccccc1)NC(=O)c1ccccc1F (centres unmarked) [IX-278, N-(1-((5-chloro-2-methoxyphenyl)amino)-1-oxo-3-phenylpropan-2-yl)-2-fluorobenzamide]",29 µg/mL,,2.3 µg/mL,0.78 µg/mL,0.39 µg/mL
"COc1ccc(Cl)cc1NC(=O)C(Cc1ccccc1)NC(=O)c1ccccc1C (centres unmarked) [IX-279, N-(1-((5-chloro-2-methoxyphenyl)amino)-1-oxo-3-phenylpropan-2-yl)-2-methylbenzamide]",87 µg/mL,,0.78 µg/mL,0.78 µg/mL,1.56 µg/mL
"O=C(NC(Cc1ccccc1)C(=O)Nc1cccc2nc[nH]c12)c1ccccc1F (centres unmarked) [IX-280, N-(1-((1H-benzo[d]imidazol-7-yl)amino)-1-oxo-3-phenylpropan-2-yl)-2-fluorobenzamide]",78 µg/mL,,25 µg/mL,12.5 µg/mL,1.56 µg/mL
"Cc1ccccc1C(=O)NC(Cc1ccccc1)C(=O)Nc1cccc2nc[nH]c12 (centres unmarked) [IX-281, N-(1-((1H-benzo[d]imidazol-7-yl)amino)-1-oxo-3-phenylpropan-2-yl)-2-methylbenzamide]",92 µg/mL,,12.5 µg/mL,12.5 µg/mL,0.78 µg/mL
"Cc1ccccc1C(=O)NC(Cc1ccccc1)C(=O)Nc1cccc2c1cnn2C (centres unmarked) [IX-297, 2-methyl-N-(1-((1-methyl-1H-indazol-4-yl)amino)-1-oxo-3-phenyl-propan-2-yl)benzamide]",>100 µg/mL,,12.5 µg/mL,12.5 µg/mL,0.78 µg/mL
"CC(=O)N1CCCN(c2ccc(F)cc2NC(=O)C(Cc2ccccc2)NC(=O)c2ccccc2F)CC1 (centres unmarked) [IX-319, N-(1-((2-(4-acetyl-1,4-diazepan-1-yl)-5-fluorophenyl)amino)-1-oxo-3-phenylpropan-2-yl)-2-fluorobenzamide]",>100 µg/mL,,6.25 µg/mL,3.12 µg/mL,0.39 µg/mL
